Assays:
GSK3α = GSK3α (Homo sapiens (Human), UniProt P49840); assay: GSK 3α enzyme inhibition (FRET, Z-LYTE); format: biochemical
Summary of the method: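 Phosphorylation was read as the donor (coumarin) to acceptor (fluorescein) ratio after a 1 hr protease step destroying non-phosphorylated peptide. Before this, compound (4–0.004 μg/mL stocks) sat 2 hr at RT with GSK3α (500 ng/mL stock), followed by 1 hr kinase reaction with 8 μM peptide and 40 μM ATP stocks.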

d-U937 cells = assay: Cell viability: MTT assay; format: cell-based, human; details: 1 μg/mL
Summary of the method: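 MTT read-out (1 h, absorbance 550 nm) on d-U937 cells after pre-incubation with 1 or 10 μg/mL compound under two regimes: 4 h, 5% FCS, or 24 h, 10% FCS RPMI1640. Values are percent loss of viability relative to vehicle (0.5% DMSO), so increases are reported as negative.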

cSrc = cSrc (Homo sapiens (Human), UniProt P12931); assay: c-Src enzyme inhibition (FRET, Z-LYTE); format: biochemical
Chain of cSrc (P12931 whole entry, looked up): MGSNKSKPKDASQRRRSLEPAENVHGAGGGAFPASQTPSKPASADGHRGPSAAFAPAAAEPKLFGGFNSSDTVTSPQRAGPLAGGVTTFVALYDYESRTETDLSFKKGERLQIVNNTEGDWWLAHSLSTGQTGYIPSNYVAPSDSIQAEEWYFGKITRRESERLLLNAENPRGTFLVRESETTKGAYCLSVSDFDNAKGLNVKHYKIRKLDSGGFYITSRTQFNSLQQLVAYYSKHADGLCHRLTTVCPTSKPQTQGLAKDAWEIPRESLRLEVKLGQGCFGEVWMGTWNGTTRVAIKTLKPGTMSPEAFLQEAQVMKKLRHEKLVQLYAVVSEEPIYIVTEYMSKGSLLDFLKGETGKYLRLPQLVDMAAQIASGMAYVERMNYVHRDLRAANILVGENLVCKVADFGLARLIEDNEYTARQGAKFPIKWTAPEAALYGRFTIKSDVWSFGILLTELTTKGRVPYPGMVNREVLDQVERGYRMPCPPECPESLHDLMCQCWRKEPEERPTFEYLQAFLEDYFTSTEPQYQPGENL
Summary of the method: (§1)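 Z-LYTE FRET kinase assay: enzyme (3000 or 2000 ng/mL stock, respectively) preincubated 2 h at RT with compound (4–0.004 μg/mL stocks), then FRET peptide plus ATP (800 μM stock for c-Src, 60 μM for Syk) added for 1 h. Protease development 1 h; phosphorylation from coumarin/fluorescein emission ratio.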

[1] = tested on: LPS-induced TNFα release in d-U937 cells; assay: LPS-induced TNFα release in d-U937 cells; format: cell-based; details: Homo sapiens, dU937, relative to 10 μg/mL BIRB796, read-out: LPS Induced Release of Cytokine in d-937 Cells TNFα REC50
Summary of the method: (§2)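 Read-out: TNFα and IL-8 released into supernatant, sandwich ELISA, expressed as inhibition versus vehicle at each dose and fitted to give REC50. Cells were PMA-differentiated U937 (100 ng/mL, 48–72 hr), compound-exposed 2 hr before a 4 hr LPS stimulus (0.1 μg/mL).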

[2] = tested on: LPS-induced IL-8 release in d-U937 cells; assay: LPS-induced IL-8 release in d-U937 cells; format: cell-based; details: Homo sapiens, dU937, read-out: LPS Induced Release of Cytokine in d-937 Cells IL-8 IC50
Summary of the method: as §2

[3] = tested on: Poly I:C-induced ICAM-1 expression in BEAS2B cells; assay: Poly I:C-induced ICAM-1 expression in BEAS2B cells; format: cell-based; details: Homo sapiens, BEAS-2B, read-out: Poly IC induced ICAM1 in BEAS2B IC50
Summary of the method: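 Cell-based ELISA read at 450 nm minus 655 nm, divided by crystal violet OD595 to normalize for cell number, gave ICAM-1 levels. Readout was taken 18 hr after poly I:C (1 μg/mL, Oligofectamine) transfection of human bronchial BEAS2B cells pretreated 2 hr with test compound.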

p38 MAPKα = p38 MAPKα (Homo sapiens (Human), UniProt Q16539); assay: p38 MAPKα enzyme inhibition (FRET, Z-LYTE); format: biochemical
Chain of p38 MAPKα (Q16539 whole entry): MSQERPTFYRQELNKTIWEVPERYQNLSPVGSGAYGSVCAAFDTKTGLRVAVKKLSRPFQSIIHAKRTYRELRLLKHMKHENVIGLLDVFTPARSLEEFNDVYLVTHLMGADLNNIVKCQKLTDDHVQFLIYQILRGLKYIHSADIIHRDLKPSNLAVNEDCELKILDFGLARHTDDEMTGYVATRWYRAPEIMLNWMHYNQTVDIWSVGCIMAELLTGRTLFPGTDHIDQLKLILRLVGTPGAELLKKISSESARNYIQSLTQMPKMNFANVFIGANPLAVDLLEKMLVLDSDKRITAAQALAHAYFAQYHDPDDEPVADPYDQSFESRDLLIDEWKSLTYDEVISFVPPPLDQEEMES

Syk = Syk (Homo sapiens (Human), UniProt P43405); assay: Syk enzyme inhibition (FRET, Z-LYTE); format: biochemical
Summary of the method: as §1

Chain of GSK3α (P49840 whole entry): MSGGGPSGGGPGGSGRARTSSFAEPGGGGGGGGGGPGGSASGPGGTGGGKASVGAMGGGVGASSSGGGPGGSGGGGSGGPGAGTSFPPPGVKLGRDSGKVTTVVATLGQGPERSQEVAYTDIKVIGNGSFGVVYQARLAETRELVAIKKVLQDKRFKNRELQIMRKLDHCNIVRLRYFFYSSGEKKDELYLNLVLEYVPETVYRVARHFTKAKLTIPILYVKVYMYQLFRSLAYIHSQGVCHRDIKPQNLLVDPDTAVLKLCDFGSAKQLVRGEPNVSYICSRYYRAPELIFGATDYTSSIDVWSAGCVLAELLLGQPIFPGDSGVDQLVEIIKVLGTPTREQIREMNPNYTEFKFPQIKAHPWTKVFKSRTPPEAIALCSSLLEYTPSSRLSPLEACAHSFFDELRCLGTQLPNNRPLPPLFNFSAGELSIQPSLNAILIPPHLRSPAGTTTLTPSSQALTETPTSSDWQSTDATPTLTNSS

Structure (SMILES) | IC50 (GSK3α) [nM] | MTT Assay Cell viability at time point in d-U937 cells 4 h (d-U937 cells) | MTT Assay Cell viability at time point in d-U937 cells 24 h (d-U937 cells) | IC50 (cSrc) [nM] | EC50 [1] [nM] | IC50 [2] [nM] | IC50 [3] [nM] | IC50 (p38 MAPKα) [nM] | IC50 (Syk) [nM]
CC(C)(C)c1cc(NC(=O)Nc2ccc(Oc3ccnc(Nc4ccc5c(c4)NC(=O)C5(C)C)n3)c3ccccc23)n(-c2ccc(OCCN3CCOCC3)cc2)n1 [Example 62, 1-(3-(tert-butyl)-1-(4-(2-morpholinoethoxy)phenyl)-1H-pyrazol-5-yl)-3-(4-((2-((3,3-dimethyl-2-oxoindolin-6-yl)amino)pyrimidin-4-yl)oxy)naphthalen-1-yl)urea] | 1700 | −ve (−ve and +ve indicate that the value is below and above respectively, the no significant effect threshold, defined as 30% inhibition at 1 μg/mL at the time point indicated.) | −ve (−ve and +ve indicate that the value is below and above respectively, the no significant effect threshold, defined as 30% inhibition at 1 μg/mL at the time point indicated.) | 5 | 7.3 | 22.7 | 11.6 | 98 | 9
CC(C)(C)c1cc(NC(=O)Nc2ccc(Oc3ccnc(Nc4ccc5c(c4)C(=O)NC5)n3)c3ccccc23)n(-c2ccc(OCCN3CCOCC3)cc2)n1 [Example 63, 1-(3-(tert-butyl)-1-(4-(2-morpholinoethoxy)phenyl)-1H-pyrazol-5-yl)-3-(4-((2-((3-oxoisoindolin-5-yl)amino)pyrimidin-4-yl)oxy)naphthalen-1-yl)urea] | 184 | −ve (−ve and +ve indicate that the value is below and above respectively, the no significant effect threshold, defined as 30% inhibition at 1 μg/mL at the time point indicated.) | −ve (−ve and +ve indicate that the value is below and above respectively, the no significant effect threshold, defined as 30% inhibition at 1 μg/mL at the time point indicated.) | < 1 | 1.5 | 2.8 | 0.3 | 14 | 10
CC(C)(C)c1cc(NC(=O)Nc2ccc(Oc3ccnc(Nc4ccc5c(c4)CS(=O)(=O)C5)n3)c3ccccc23)n(-c2ccc(OCCN3CCOCC3)cc2)n1 [Example 64, 1-(3-(tert-butyl)-1-(4-(2-morpholinoethoxy)phenyl)-1H-pyrazol-5-yl)-3-(4-((2-((2,2-dioxido-1,3-dihydrobenzo[c]thiophen-5-yl)amino)pyrimidin-4-yl)oxy)naphthalen-1-yl)urea] | 437 | −ve (−ve and +ve indicate that the value is below and above respectively, the no significant effect threshold, defined as 30% inhibition at 1 μg/mL at the time point indicated.) | −ve (−ve and +ve indicate that the value is below and above respectively, the no significant effect threshold, defined as 30% inhibition at 1 μg/mL at the time point indicated.) | 3 | 1.1 | 1.3 | 0.01 | 67 | 20
CC(C)(C)c1cc(NC(=O)Nc2ccc(Oc3ccnc(Nc4ccc5c(c4)OCO5)n3)c3ccccc23)n(-c2ccc(OCCN3CCOCC3)cc2)n1 [Example 65, 1-(4-((2-(benzo[d][1,3]dioxol-5-ylamino)pyrimidin-4-yl)oxy)naphthalen-1-yl)-3-(3-(tert-butyl)-1-(4-(2-morpholinoethoxy)phenyl)-1H-pyrazol-5-yl)urea] | 2840 | −ve (−ve and +ve indicate that the value is below and above respectively, the no significant effect threshold, defined as 30% inhibition at 1 μg/mL at the time point indicated.) | −ve (−ve and +ve indicate that the value is below and above respectively, the no significant effect threshold, defined as 30% inhibition at 1 μg/mL at the time point indicated.) | 23 | 5.3 | 20.9 | 6.7 | 239 | 141
Cc1cc2cc(Nc3nccc(Oc4ccc(NC(=O)Nc5cc(C(C)(C)C)nn5-c5ccc(OCCN6CCOCC6)cc5)c5ccccc45)n3)ccc2[nH]1 [Example 66, 1-(3-(tert-butyl)-1-(4-(2-morpholinoethoxy)phenyl)-1H-pyrazol-5-yl)-3-(4-((2-((2-methyl-1H-indol-5-yl)amino)pyrimidin-4-yl)oxy)naphthalen-1-yl)urea] | 2850 | −ve (−ve and +ve indicate that the value is below and above respectively, the no significant effect threshold, defined as 30% inhibition at 1 μg/mL at the time point indicated.) | −ve (−ve and +ve indicate that the value is below and above respectively, the no significant effect threshold, defined as 30% inhibition at 1 μg/mL at the time point indicated.) | 15 | 6.4 | 16 | 6.9 | 335 | 19
CC(C)(C)c1cc(NC(=O)Nc2ccc(Oc3ccnc(Nc4ccc5[nH]ncc5c4)c3)c3ccccc23)n(-c2ccc(OCCN3CCOCC3)cc2)n1 [Example 67] | 3040 | −ve (−ve and +ve indicate that the value is below and above respectively, the no significant effect threshold, defined as 30% inhibition at 1 μg/mL at the time point indicated.) | −ve (−ve and +ve indicate that the value is below and above respectively, the no significant effect threshold, defined as 30% inhibition at 1 μg/mL at the time point indicated.) | < 1 | 1.5 | 0.3 | 2.5 | 5 | < 1
CC(C)c1cc(NC(=O)Nc2ccc(Oc3ccnc(Nc4ccc5[nH]ncc5c4)n3)c3ccccc23)n(-c2ccc(OCCN3CCOCC3)cc2)n1 [Example 69, 1-(4-((2-((1H-indazol-5-yl)amino)pyrimidin-4-yl)oxy)naphthalen-1-yl)-3-(3-isopropyl-1-(4-(2-morpholinoethoxy)phenyl)-1H-pyrazol-5-yl)urea] | 1280 | −ve (−ve and +ve indicate that the value is below and above respectively, the no significant effect threshold, defined as 30% inhibition at 1 μg/mL at the time point indicated.) | −ve (−ve and +ve indicate that the value is below and above respectively, the no significant effect threshold, defined as 30% inhibition at 1 μg/mL at the time point indicated.) | 3 | 0.4 | 3.4 | 8.1 | 18 | 5
Cc1n[nH]c2cc(Nc3nccc(Oc4ccc(NC(=O)Nc5cc(C(C)(C)C)nn5-c5ccc(OCCN6CCOCC6)cc5)c5ccccc45)n3)ccc12 [Example 71, 1-(3-(tert-butyl)-1-(4-(2-morpholinoethoxy)phenyl)-1H-pyrazol-5-yl)-3-(4-((2-((3-methyl-1H-indazol-6-yl)amino)pyrimidin-4-yl)oxy)naphthalen-1-yl)urea] | 3440 | −ve (−ve and +ve indicate that the value is below and above respectively, the no significant effect threshold, defined as 30% inhibition at 1 μg/mL at the time point indicated.) | −ve (−ve and +ve indicate that the value is below and above respectively, the no significant effect threshold, defined as 30% inhibition at 1 μg/mL at the time point indicated.) | 12 | 11.1 | > 1330 | 2.2 | 269 | 9

Source: patent US9249125B2, “Pyrazole derivatives as p38 MAP inhibitors” (RESPIVERT LIMITED, priority 2012, dated 2016)
